# Assay results taken from patent US20010048926A1, “SYNTHETIC PEPTIDE VACCINES FOR DENTAL CARIES” (priority 1992, published 2001).
# Legend:
# [1] = tested on: inducing peptide construct; experiment: ELISA of serum IgG antibody to the inducing (homologous) peptide construct in immunized rats; format: in vivo, Sprague Dawley rats; details: for immunogenicity (percentage of animals responding and titer of responding sera): FIG. 1
# Method: (§1) Immunogenicity of Peptides: Sprague Dawley CD strain 43 day-old male rats (Charles River Laboratories) were used for injection. Six groups of 4-5 rats were injected subcutaneously in the vicinity of the salivary glands with 50 μg each of GGY, AND, SAND or CAT peptide constructs, 10 μg of GTF, or sham-immunized with buffer alone. The initial injection included complete Freund adjuvant (CFA; Difco); two subsequent injections at 21-day intervals included incomplete Freund adjuvant. Animals were bled prior to injection and 14-21 days after each injection. Serum from coagulated and centrifuged blood was stored frozen at −20° C. until use.
# (§2) ELISA: Serum IgG and salivary IgA antibodies were tested by enzyme-linked immunosorbent assay (ELISA). Polystyrene microtiter plates (Flow Laboratories) were coated with […] of each peptide construct or 0.5 μg of S. sobrinus GTF. Antibody activity was then measured by incubation with 1:100 to 1:10^6 dilutions of sera, or 1:4 to 1:32 dilutions of saliva. Plates were then developed for IgG antibody rabbit anti-rat IgG followed in sequence by alkaline phosphatase goat anti-rabbit IgG (Biosource Inc.) and p-nitrophenylphosphate (Sigma). A mouse monoclonal reagent to rat α chain (Zymed, South San Francisco, Calif.) was used with biotinylated goat anti-mouse IgG (TAGO, Inc., Burlingame, Calif.) and avidin-alkaline phosphatase (Cappel) to reveal levels of salivary IgA antibody to peptides. Reactivity was recorded as absorbance (A405 nm) in a micro plate reader (Biotek Instruments). Data are reported as absorbance (A405 nm), reciprocal titer, or as ELISA units (EU) which were calculated relative to the levels of appropriate reference sera or salivas from Sprague Dawley rats thrice immunized with the respective peptide construct. Dilutions of 1:12,800 and 1:6,400 (A405 nm approximately 1.0) were considered 100 EU for serum IgG to the GGY and AND constructs, respectively. Dilutions of 1:32 were considered 100 EU for salivary IgA to both GGY and AND constructs.
# (§3) Two experiments were performed. Groups (n=11-12) of 23-26 day-old rats were subcutaneously (sc) injected in the salivary gland vicinity with (experiment 1) GGY (50 μg), AND (50 μg) or GTF(10 μg), or phosphate buffered saline (control animals), or (experiment 2) GGY (50 ;μg) or PBS. Each antigen was incorporated with complete Freund adjuvant in both experiments. Eight (experiment 1) or 14 (experiment 2) days later, rats were reinjected with PBS or with the same antigen and dose in incomplete Freund adjuvant. Six (experiment 1) or 12 (experiment 2) days after the second injection, animals were bled from the tail vein, and saliva was collected after injection of pilocarpine (1.0 mg/100 g body weight). Fourteen (experiment 1) or 11 (experiment 2) days after the second injection, all rats were orally infected with approximately 10^8 S. mutans for 3 consecutive days. Both experiments were terminated 63 days after initial infection.
# (§4) Two experiments were performed to measure the effect of immunization with the eight-branched GGY and AND peptide constructs on experimental dental caries in the Sprague-Dawley rat. In the first experiment, groups of rats were immunized with GGY or AND peptide constructs. In the second experiment groups of rats were immunized only with the GGY peptide construct. Pre-infection sera and salivas were collected for antibody measurement in 39 day old rats in experiment 1 (6 days after the second injection) and 51 day old rats in experiment 2 (12 days after the second injection). In the GGY-immunized rat groups, IgG antibody levels to GGY (experiment 1=21.9+17.8 EU; experiment 2=108.0±4.0 EU) were elevated above those of the sham-immunized groups (experiment 1=1.7±0.2 EU; experiment 2=4.0±3.0 EU) in both experiments and reached statistical significance (p<0.002) in experiment 2.
# S. mutans SJ32 = experiment: Protection experiments: caries assessment (modified Keyes method) after S. mutans infection; format: in vivo, Sprague-Dawley rats; details: both experiments
# Text: Experimental Protocol for Protection Experiments: Animals used in the present experiments were derived from germ-free Sprague-Dawley rats that had been reared in the isolator facility of Charles River Laboratories, Wilmington, Mass. (Area 051). […] These rats served as initial breeding stock for dams used in these experiments and were regularly monitored for absence of mutans streptococci. The progeny of the dams used for the present experiments were weaned at approximately 21 days and were subsequently fed high sucrose Diet 2000.
# as §3
# Caries assessment: The extent and depth of carious lesions in all rat molar teeth (caries score) were microscopically evaluated by a modified Keyes method as previously described (Taubman et al., J. Immunol. 118:710-720 (1977)). Caries scores were determined separately on smooth and on sulcal dental surfaces.
# S. sobrinus GTF [2] = experiment: ELISA of serum IgG antibody reacting with intact S. sobrinus GTF; format: in vivo; details: 63 day sera, FIG. 3; for IgG antibody reactivity with intact S. sobrinus GTF: n=4-5 per group
# Text: (§5) Glucosyltransferases: Glucosyltransferases (GTF) from S. sobrinus strain 6715 were purified from culture supernatants after bacterial growth in glucose-containing defined media, as described in Taubman et al. (J. Oral Pathol. 17:466-470 (1988)). Enzymes were separated from other culture supernatant proteins by affinity chromatography on Sephadex G-100 (Pharmacia Fine Chemicals), using 6M guanidine HCl as the eluting solvent. GTFs were then obtained from the guanidine HCl eluate by FPLC chromatography on Superose 6 (Pharmacia) using 6M guanidine for elution. GTF preparations contained a mixture of GTF-I, GTF-Sd, and GTF-Si.
# as §1, §2
# [3] = tested on: inducing peptide construct; experiment: ELISA of salivary IgA antibody to the inducing (homologous) peptide construct in immunized rats; format: in vivo, Sprague Dawley rats; details: for rats with significant levels of salivary IgA antibody: GGY- and AND-injected rats counted together
# Method: as §1, §2, §3, §4
# GGY peptide construct = molecular target: T1, GGY peptide construct (Streptococcus mutans serotype c, UniProt P08987); experiment: Cross-reactivity ELISA, plates coated with GGY peptide construct; format: binding; details: day 63 sera; FIG. 4
# T1 construct: GGY and AND were 19-mer peptides; purchased Applied Diagnostics, Foster City, Calif; host or cells: chemical solid phase synthesis
# Method: as §1
# (§6) ELISA: Serum IgG and salivary IgA antibodies were tested by enzyme-linked immunosorbent assay (ELISA). Polystyrene microtiter plates (Flow Laboratories) were coated with […] of each peptide construct or 0.5 μg of S. sobrinus GTF. Antibody activity was then measured by incubation with 1:100 to 1:10^6 dilutions of sera, or 1:4 to 1:32 dilutions of saliva. […] Reactivity was recorded as absorbance (A405 nm) in a micro plate reader (Biotek Instruments). Data are reported as absorbance (A405 nm), reciprocal titer, or as ELISA units (EU) which were calculated relative to the levels of appropriate reference sera or salivas from Sprague Dawley rats thrice immunized with the respective peptide construct. […]
# S. sobrinus GTF [4] = experiment: Antibody inhibition of glucan synthesis (filter assay, 14C glucose incorporation into water-insoluble glucan); format: biochemical, S. sobrinus strain 6715
# Text: as §5
# Antibody Inhibition of Glucan Synthesis: Selected rat sera were evaluated for their ability to inhibit glucan synthesis catalyzed by S. sobrinus GTF, using a filter assay. Ten μl volumes of sera (1:100 dilutions in 0.02M sodium phosphate buffered saline and 0.02% sodium azide [PBSA], pH 6.5) were preincubated with the respective GTF for 1 hour at 37° C. in a total volume of 0.04 ml PBSA. Then 1.7 mg sucrose, 44 nCi of [^14C-glucose]-sucrose (approximately 100,000 cpm) were added in 0.2 ml PESA in the presence of 37 μg of dextran T10 (Pharmacia). Incubation proceeded for 18 hours at 37° C., after which water-insoluble glucan was collected on Whatman GF/F glass fiber filters, washed with PBSA, and radioactivity determined as described in Smith et al. (Infect. Immunity 62:5470-5476 (1994)).
# CAT peptide construct = molecular target: T2, CAT peptide construct (Streptococcus mutans serotype c, UniProt P08987); experiment: Cross-reactivity ELISA, plates coated with CAT peptide construct; format: binding; details: day 63 sera; FIG. 4
# T2 construct: residues 442-462 of S. mutans GTF-B; purchased Applied Diagnostics, Foster City, Calif; host or cells: chemical solid phase synthesis
# Method: as §1, §6
# [5] = tested on: experimental dental caries; details: Taubman et al. Infect. Immun. 63:3088-3093 (1995); protocol similar to experiment 1; cited from earlier work
# AND peptide construct = molecular target: T3, AND peptide construct (Streptococcus mutans serotype c, UniProt P08987); experiment: Cross-reactivity ELISA, plates coated with AND peptide construct; format: binding; details: day 63 sera; FIG. 4
# T3 construct: GGY and AND were 19-mer peptides; purchased Applied Diagnostics, Foster City, Calif; host or cells: chemical solid phase synthesis
# T3 sequence (P08987 whole entry, looked up): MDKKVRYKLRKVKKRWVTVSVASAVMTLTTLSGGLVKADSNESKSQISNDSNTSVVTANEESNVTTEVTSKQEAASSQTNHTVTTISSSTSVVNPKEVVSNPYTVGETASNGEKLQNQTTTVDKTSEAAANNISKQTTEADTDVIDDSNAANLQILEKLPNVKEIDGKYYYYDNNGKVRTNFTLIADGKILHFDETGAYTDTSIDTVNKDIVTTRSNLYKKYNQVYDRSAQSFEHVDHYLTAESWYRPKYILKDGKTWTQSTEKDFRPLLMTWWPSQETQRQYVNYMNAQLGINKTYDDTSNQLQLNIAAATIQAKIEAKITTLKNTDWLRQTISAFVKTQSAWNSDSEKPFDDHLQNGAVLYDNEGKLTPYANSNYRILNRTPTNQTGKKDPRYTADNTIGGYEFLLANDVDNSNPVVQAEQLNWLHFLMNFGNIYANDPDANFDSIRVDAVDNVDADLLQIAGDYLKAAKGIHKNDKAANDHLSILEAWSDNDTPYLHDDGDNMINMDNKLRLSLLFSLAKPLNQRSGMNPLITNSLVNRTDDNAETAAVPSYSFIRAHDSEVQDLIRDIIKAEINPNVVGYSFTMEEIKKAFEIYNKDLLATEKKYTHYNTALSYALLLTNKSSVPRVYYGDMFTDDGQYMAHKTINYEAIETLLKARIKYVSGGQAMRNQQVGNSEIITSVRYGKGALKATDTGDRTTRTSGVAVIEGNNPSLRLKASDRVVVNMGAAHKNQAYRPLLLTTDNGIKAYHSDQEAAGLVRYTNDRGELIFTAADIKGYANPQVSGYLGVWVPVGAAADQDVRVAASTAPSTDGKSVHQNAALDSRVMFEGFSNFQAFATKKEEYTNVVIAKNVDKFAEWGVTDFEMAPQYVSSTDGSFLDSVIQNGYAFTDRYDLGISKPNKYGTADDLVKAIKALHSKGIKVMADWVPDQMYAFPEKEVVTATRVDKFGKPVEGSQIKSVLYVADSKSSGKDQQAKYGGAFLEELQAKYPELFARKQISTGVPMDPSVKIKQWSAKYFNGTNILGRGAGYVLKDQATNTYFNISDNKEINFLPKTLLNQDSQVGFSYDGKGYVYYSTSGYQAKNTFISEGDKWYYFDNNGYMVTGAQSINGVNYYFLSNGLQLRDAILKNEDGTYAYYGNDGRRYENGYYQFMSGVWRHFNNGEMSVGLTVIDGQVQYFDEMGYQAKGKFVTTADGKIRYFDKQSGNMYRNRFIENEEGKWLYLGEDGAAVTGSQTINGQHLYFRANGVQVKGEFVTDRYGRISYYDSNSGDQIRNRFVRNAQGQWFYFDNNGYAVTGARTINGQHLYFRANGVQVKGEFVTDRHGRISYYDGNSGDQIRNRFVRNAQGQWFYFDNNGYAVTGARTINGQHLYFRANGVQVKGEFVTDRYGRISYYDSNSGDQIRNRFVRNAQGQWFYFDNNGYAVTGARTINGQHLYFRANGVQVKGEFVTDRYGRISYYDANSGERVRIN
# Method: as §1, §6
# anti-GGY serum = experiment: Epitope mapping by ELISA inhibition, anti-GGY serum on GGY-coated plates; format: binding, rat; details: anti-GGY serum preincubated with heptamer or intact peptide; FIG. 8
# Method: Epitope Mapping: B cell epitopes were mapped on the GGY and AND peptides by an ELISA inhibition technique. Anti-GGY or anti-AND sera were preincubated with 13 separate heptamers representing the incremental peptide sequence of the respective peptide, or with intact peptide, followed by the conventional ELISA with intact peptide-coated plates. B cell epitopes were indicated by a significant reduction in absorbance.
# [6] = protection experiment 1, pre-infection
substance,measurement,setting,value
ANDVDNSNPVVQ [SAND],immunogenicity (percentage of animals responding and titer of responding sera),[1]; immunogenicity experiment,weakly immunogenic
ANDVDNSNPVVQAEQLNWL,"mean and median total, smooth surface, and occlusal caries scores vs sham-injected group",S. mutans SJ32,lower than the respective scores of the sham-injected group
same,IgG antibody reactivity with intact S. sobrinus GTF,S. sobrinus GTF [2],significant reactivity with GTF
same,GTF reactivity compared with antibody induced by the other peptides,S. sobrinus GTF [2],significantly more reactive with GTF
same,rats with significant levels of salivary IgA antibody,[3]; day 21 (one injection),7/9
same,rats with significant levels of salivary IgA antibody,[3]; day 63 (three injections),8/9
same,salivary IgA antibody levels to the AND construct,[3]; [6],not significantly elevated
same,reaction of antisera with the GGY peptide construct,GGY peptide construct,reaction with antisera induced by AND was observed
same,inhibition of formation of water-insoluble glucan from sucrose by S. sobrinus GTF (in words),"S. sobrinus GTF [4]; 63 day sera from injected rats, AND p<0.01, FIG. 5",inhibited GTF activity
same,level of inhibitory activity compared with other immunogens,"S. sobrinus GTF [4]; 63 day sera, AND vs CAT p<0.02",exceeded that observed with sera from rats similarly immunized with CAT
same,reaction of serum IgG antibody with the CAT peptide,CAT peptide construct,low but significant reaction
same,immunogenicity (percentage of animals responding and titer of responding sera),[1]; immunogenicity experiment,at least as high as observed for the positive control CAT peptide
same,effect of subsequent immunization on serum IgG titers,"[1]; immunogenicity experiment, day 21 (one injection) vs day 63 (three injections)",increased serum IgG titers in all AND-injected rats
same,serum IgG antibody to the inciting antigen after the first injection,"[1]; immunogenicity experiment, rats 43 days old at start, 50 μg sc in CFA, day 21",induced serum IgG antibody to the inciting antigen after the first injection in all rats
same,Serum IgG antibody levels to the AND construct,[1]; [6],not significantly elevated
same,levels of serum IgG antibody (in words),"[1]; protection experiment 1, weanling rats, two injections eight days apart, bled 14 days after onset (day 39 of life)",little detectable antibody
"CAT: 21-mer peptide containing Asp 451, residues 442-462 of S. mutans GTF-B; positive control (DANFDSIRVDAVDNVDADLLQ) [reference compound]",IgG antibody reactivity with intact S. sobrinus GTF,S. sobrinus GTF [2],significant reactivity with GTF
same,protective effect against experimental dental caries,[5],a significant protective effect was shown
same,reaction of serum IgG antibody with the AND peptide construct,AND peptide construct,significant reaction
FLLANDV,inhibition of GGY antibody binding to intact peptide-coated plates,anti-GGY serum,significantly inhibited
LLANDVD,inhibition of GGY antibody binding to intact peptide-coated plates,anti-GGY serum,significantly inhibited
